This note sets out measurements from US8221975B2, “Method for detection of microorganism” (Morinaga Milk Industry Co., Ltd., priority 2007, dated 2012).

The test system of this experiment is Enterobacter sakazakii ATCC 6538P. As to the kind of experiment: MMS real-time PCR (79 bp) of EMA-treated Enterobacter sakazakii, Ct value. Format: cell-based. The method, then: In the case where the real-time PCR is employed, changes in fluorescent intensities are generally noise levels and about zero if the number of amplification cycles is in the range of 1 to 10. Therefore, the intensities are regarded as sample blanks containing no amplification products. The standard deviation (SD) of the changes is calculated, and a value obtained by multiplying the SD value by 10 is defined as a threshold value. The number of PCR cycles in which a value larger than the threshold value is achieved for the first time referred to as “cycle threshold value (Ct value)”. Therefore, the larger the initial amount of a DNA template in a PCR reaction solution, the smaller the Ct value, while the smaller the amount of the template DNA, the larger the Ct value. Even if the amounts of the template DNA are the same, the higher the proportion of the template where a target region of PCR has been cleaved, the larger the Ct value in PCR reactions for the region.
A Gram-negative bacterium, Enterobacter sakazakii (Enterobacter sakazakii ATCC 6538P; hereinafter, abbreviated as “sakazakii” in some cases), was cultured in brain-heart infusion (BHI) broth at 37° C., and 5 ml of the culture medium in the logarithmic growth phase was centrifuged at 8,000×g for 15 minutes at 4° C., followed by removal of the supernatant. 5 ml of physiological saline was added to the bacterial cells, and the whole was vigorously stirred and diluted 10-fold. Thus, a live cell suspension was prepared. The number of the live cells in the live cell suspension was determined in a standard agar plate medium and found to be 8.38±0.25 log10 cfu/ml.
The live cell suspension (1 ml) was placed in a 1.5-ml microtube, and the microtube was immersed in boiling water for 2 minutes and immediately cooled with ice water, to thereby prepare a injured cell suspension. The cells in the suspension probably include small numbers of live cells and dead cells but include mainly injured cells. Therefore, the cells are simply referred to as “injured cells”. Note that the method of the present invention is originally intended to detect live cells, and microorganism cells distinguished from live cells may be injured cells or dead cells.
Ethidium monoazide (EMA) was added to the live cell suspension and injured cell suspension of sakazakii prepared above at a final concentration of 0, 10, 25, or 100 μg/ml, and the suspensions were allowed to stand under shading at 4° C. for 10 minutes. The suspensions were placed on ice and irradiated for 5 minutes with a 500-W visible light (FLOOD PRF: 100 V, 500 W, IWASAKI ELECTRIC CO., LTD., wavelength: 500 to 700 nm) at a distance of 20 cm from the suspensions. Then, the suspensions were centrifuged at 15,000×g for 10 minutes at 4° C., and the supernatants were removed. An equal volume of physiological saline was added thereto, and the suspensions were stirred and centrifuged while cooling at 15,000×g for 10 minutes at 4° C., followed by removal of the supernatants. An equal volume of brain-heart infusion (BHI) broth was added thereto, and the suspensions were incubated at 37° C. for 2 hours.
In the […] EMA treatment, EMA was not added again to the live cell and injured cell suspensions having an EMA concentration of 0, […] The suspensions were allowed to stand under shading at 4° C. for 10 minutes, placed on ice, and irradiated for 5 minutes with a 500-W visible light at a distance of 20 cm from the suspensions.
Ethidium monoazide (EMA) was added to the live cell and injured cell suspensions of sakazakii prepared in the section “1.” at a final concentration of 0, 10, 25 or 100 μg/ml, and the suspensions were allowed to stand under shading at 4° C. for 10 minutes, placed on ice, and irradiated for 5 minutes with a 500-W visible light (FLOOD PRF: 100V, 500 W, IWASAKI ELECTRIC CO., LTD., wavelength: 500 to 700 nm) at a distance of 20 cm from the suspensions. […]

The mark [1] stands for this setting: single-step EMA 10 μg/ml, Injured cell.
The mark [2] stands for this setting: single-step EMA 25 μg/ml, Injured cell.
The mark [3] stands for this setting: single-step EMA 100 μg/ml, Injured cell.

Turning to `CC[n+]1c(-c2ccccc2)c2cc(N=[N+]=[N-])ccc2c2ccc(N)cc21` [EMA, ethidium monoazide], the “Ct value (mean ± SD, N = 2)” value runs as follows: under setting [1], 27.6 ± 0.1; (single-step EMA 10 μg/ml, Live cell) 20.8 ± 0.9; under setting [2], 27.3 ± 1.0; (single-step EMA 25 μg/ml, Live cell) 19.9 ± 1.3; under setting [3], 25.2 ± 0.5; (single-step EMA 100 μg/ml, Live cell) 22.2 ± 1.0. Moreover, the “Ct value (mean ± SD, N = 2)” value is 17.1 ± 1.8 (two-step EMA 10/10 μg/ml, Live cell); 18.5 ± 2.5 (two-step EMA 25/10 μg/ml, Live cell); 27.3, ND^d,e (two-step EMA 100/10 μg/ml, Injured cell); 22.9 ± 1.0 (two-step EMA 100/10 μg/ml, Live cell). The “number of times of positive reaction in two PCR assays (i/2)” value reads like this: under setting [1], “(2/2)”; under setting [2], “(2/2)”; under setting [3], “(2/2)”.
